Columns and labels:
HLA-A3 [1] = target: T1, HLA-A3 (Homo sapiens, UniProt P04439); conditions: PIK3CA–HLA-A3 complex; quoted in peer review; cited from earlier work
T1 construct: the extracellular domain of the MHC heavy chain, β2-microglobulin, TCR α and β chains; made in house

T cells = conditions: high, supraphysiological concentrations; cited from earlier work
HLA-A3 [2] = target: T1, HLA-A3; assay: Peptide dissociation from HLA-A3 by fluorescence anisotropy; format: binding
[3] = tested on: TCR3-expressing T cells co-cultured with HLA-A3+ antigen presenting cells (Cos-7); assay: TNFα production by TCR3-transduced T cells (intracellular cytokine staining); conditions: Conc. 100 (unit not given), mean of three replicates
[4] = tested on: TCR4-expressing T cells co-cultured with HLA-A3+ antigen presenting cells (Cos-7); assay: TNFα production by TCR4-transduced T cells (intracellular cytokine staining); conditions: Conc. 100 (unit not given), mean of three replicates
HLA-A3 [5] = target: T1, HLA-A3; design: method as in 2 sources, one per row (each row's own in cited_ref): ref 15 (a number printed in a supplementary file, which may have a reference list of its own: not looked up in the article's list) ||| ref 10, ref 15; conditions: cited from earlier work
HLA-A3 [6] = target: T1, HLA-A3; assay: 19F NMR of 5F-Trp-substituted peptide/HLA-A3; conditions: 5F-Trp6, 0.3 mM complex, pH 7.4, 5 °C
Description: ^19F NMR spectra were recorded using a Bruker 600 MHz NMR instrument with a QCI cryogenic probe at NMRFAM, University of Wisconsin-Madison. All proteins were solubilized in 10 mM HEPES, 150 mM NaCl, pH 7.4 with 10% D2O (Cambridge Isotope Laboratories DLM-4-25).
NMR probe temperature was maintained at a calibrated value of 5.2 °C. […] To improve the signal/noise ratio, we compared ^19F 1D spectra recorded with and without proton decoupling. Decoupling caused a noticeable reduction of the signal intensity of the ^19F nuclear spin in the context of the complexes; therefore, all spectra were collected un-decoupled to maximize sensitivity. The reference frequency of the ^19F channel was set through internal routines of the Topspin acquisition software after the spectrometer was locked on D2O. The recycle delay was optimized to find the best compromise between the longitudinal relaxation and the repetition rate for signal averaging. The optimal values of D1 = 0.4 s and AQ = 0.59 s were used in all experiments. One-dimensional fluorine experiments were recorded with the pulse program zgflqn.F from the standard Bruker library with TD1 = 134,078 points and a spectral width (SW) of 200 ppm. […] The 4 h data blocks were checked individually for a possible frequency drift (which was not detected) and added to obtain combined datasets with improved signal/noise ratio. […]

[7] = tested on: TCR4-expressing T cells co-cultured with HLA-A3+ antigen presenting cells (Cos-7); assay: CD107a degranulation of TCR4-transduced T cells, peptide-pulsed HLA-A3+ APC (flow cytometry); conditions: for CD107a, absolute frequency: TCR4, 6 h co-culture, E:T 1:1, mean of three replicates
Description: TCR-T cells were utilized for downstream functional analysis at days 5–8 post transduction.
Cos-7 cells were electroporated with 100 μg/mL of HLA-A*03:01 mRNA and plated into 96-well round-bottom plates overnight. […] Cells were washed with 1× PBS to remove any unbound peptide. […] Cells were washed again with PBS and then fixed and permeabilized for 15 min at 4 °C. […] All antibodies were used at a final concentration of 5 μg/mL. Finally, cells were washed with perm-wash buffer, suspended in 2% FBS in PBS, and data acquired on an X20 LSR Fortessa flow cytometer with the BD FACSDiva software.

peptide/HLA-A3 stability in words (HLA-A3 [2]; 37 °C and 25 °C, 100 nM fluorescein-labeled peptide/HLA-A3, pH 7.4): less stable at 37 °C and 25 °C
share of remaining 19F population (HLA-A3 [6]; broad peak at –[…]): roughly 50%
share of total 19F signal (HLA-A3 [6]; sharp peak at –125.12 ppm (degradation)): about 19%
Sequence: AHHGGWTTK [WT peptide]
melting temperature (thermal stability) (HLA-A3 [1]): 37 oC
T cell responses (T cells): no responses were seen
peptide/HLA-A3 dissociation in words (HLA-A3 [2]; 4 °C, 100 nM fluorescein-labeled peptide/HLA-A3, 100 μM unlabeled peptide, pH 7.4): only a small amount of dissociation observed over an extended period
TNFα, absolute frequency [3]: 4.823
TNFα, absolute frequency [4]: 2.4
half-life of peptide/HLA-A3 complex (HLA-A3 [5]; 37 °C (b252/b262 context), quoted in peer review): 4.8 min
half-life, peptide dissociation (HLA-A3 [5]; HLA-A3, 37 °C, fluorescence anisotropy): 4.82 min
CD107a, absolute frequency ([7]; peptide 0.001 ug/mL): 1.367
CD107a, absolute frequency ([7]; peptide 0.01 ug/mL): 3.473
CD107a, absolute frequency ([7]; peptide 0.1 ug/mL): 1.267
CD107a, absolute frequency ([7]; peptide 1 ug/mL): 1.09
CD107a, absolute frequency ([7]; peptide 10 ug/mL): 1.843
CD107a, absolute frequency ([7]; peptide 1.00E-05 ug/mL): 1.503
stimulation (CD107a) ([7]; TCR4 T cells, peptide concentrations as high as 10 μM): no stimulation was evident

From paper PMC11756396 (Nature Communications, 2025)
